Molecular target: T1, PTPN9 (Homo sapiens, UniProt P43378)
T1 construct: made in house; host or cells: Escherichia coli Rosetta (DE3)
T1 sequence (P43378 277-581): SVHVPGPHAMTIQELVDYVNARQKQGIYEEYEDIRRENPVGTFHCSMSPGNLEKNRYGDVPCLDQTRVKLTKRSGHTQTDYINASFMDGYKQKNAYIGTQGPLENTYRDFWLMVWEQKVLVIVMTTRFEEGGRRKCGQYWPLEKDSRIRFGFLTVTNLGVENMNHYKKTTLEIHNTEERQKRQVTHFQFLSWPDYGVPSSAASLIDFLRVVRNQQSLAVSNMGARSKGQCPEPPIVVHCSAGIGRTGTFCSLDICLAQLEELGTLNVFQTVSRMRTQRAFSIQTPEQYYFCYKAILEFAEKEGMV
Experiment: PTPN9 enzyme inhibition with DiFMUP substrate
Assay type: biochemical
Conditions: DiFMUP 220 µM, PTPN9 0.15 nM; NA: no activity
Experimental: The purification and kinetic analyses of PTPN9 and DUSP9 (Ser277–581) were performed following methods described in the literature, with slight modifications. PAGE analysis data and enzyme kinetic constants are presented in Figure S1 and Table S1, respectively. Enzyme activity in the presence or absence of the compounds was measured using DiFMUP, a representative PTP fluorogenic substrate. First, the inhibitory effects of compounds 1–3 were evaluated using 50 µM PTPN9 and 20 µM DUSP9. There was an increase in the inhibitory activity of compound 1 for both enzymes as the number of CH2 units increased from 9 to 14 (Figure 2A,B).
Next, the IC50 values of the compounds, which induce a 50% inhibition of DiFMUP hydrolytic enzyme activity, were determined (Table 1). The IC50 values were determined from the dose–response enzyme inhibition curves of each compound. The dose–response curves for compounds 1e and 1f against PTPN9 and DUSP9, respectively, are presented in Figure 2C,D. Dose–response curves were also obtained for the other compounds (Figures S2 and S3).
The methods employed for PTP overexpression and purification have been described in a previous study. In brief, human PTPN9 and DUSP9 were cloned into a pET28a vector (Merk Millipore, Darmstadt, Germany) containing a hexahistidine (His6) tag or a maltose-binding protein (MBP) tag in its N-terminus (see Supplementary Materials). Recombinant genes were separately transformed into Escherichia coli Rosetta (DE3) (Merk Millipore, Darmstadt, Germany), and the overexpression of each gene was induced via the addition of 0.1 mM IPTG (Ducherfa Biochemie, Haarlem, RV, USA). After 16 h of incubation at 18 °C, cell pellets were obtained via centrifugation (3570× g at 4 °C for 15 min), resuspended in lysis buffer (50 mM Tris, pH: 7.5, 500 mM NaCl, 5% glycerol, 0.025% 2-mercaptoethanol, and 1 mM phenyl-methylsulfonyl fluoride (PMSF)), and lysed by ultrasonication. Subsequently, cell lysates were centrifuged at 29,820× g for 30 min at 4 °C; then, the supernatant was collected and incubated with a cobalt affinity resin (TALON® Metal Affinity Resin, Takara Korea, Seoul, Korea). After 1 h of incubation at 4 °C, the desired proteins were eluted by adding the lysis buffer supplemented with 100 mM imidazole. Samples were stored at –80 °C until use.
The enzymatic activities of purified PTPN9 and DUSP9 were measured using 6,8-difluoro-4-methylumbelliferyl phosphate (DiFMUP), the most widely used fluorogenic PTP substrate in the literature. To determine KM values, PTPN9 (0.15 nM) and DUSP9 (200 nM) were added to a reaction buffer (20 mM Bis-tris, pH: 7.0, 150 mM NaCl, 2.5 mM dithiothreitol (DTT), and 0.01% Triton X-100) containing DiFMUP (800, 400, 200, 100, 50, 25, 12.5, or 6.25 μM) in a 96-well black plate. The final reaction volume was 100 µL. The fluorescence intensity was continuously monitored for 10 min (Ex/Em = 355/460 nm) on a Victor™ X4 multilabel plate reader (Perkin Elmer, Norwalk, CT, USA). KM values were obtained using Lineweaver–Burk plots analysis.
To evaluate the enzyme inhibitory effects of GA and its analogs, 10 µl of the enzyme stock solution (1.5 nM PTPN9 and 2 µM DUSP9) in the reaction buffer was added into the mixture of DiFMUP (to a final concentration of 220 µM and 90 µM for PTPN9 and DUSP9, respectively) and each compound (to a final concentration of 50 µM and 20 µM for PTPN9 and DUSP9, respectively) was added to the reaction buffer. Enzyme activity was measured as described above. Half-inhibitory concentration (IC50) values were determined under similar conditions, except for the concentrations of the inhibitors (200, 100, 50, 25, 12.5, 6.25, or 3.125 µM for PTPN9 and 25, 12.5, 6.25, 3.125, 1.563, 0.782, or 0.391 µM for DUSP9). The dose-dependent curve was fitted to the four-parameter logistic regression equation, (y = a + (b – a)/(1 + (x/c)^d), to obtain IC50 values using the Kaleida Graph software Ver. 4.1.3. (Synergy Software Inc, PA, USA).

Structure (SMILES) | IC50
CCCCCCCCCCCCCCCOc1cccc(O)c1C(=O)O [Compound 1f] | 10.2 ± 0.52 µM
CCCCCCCCCCCCCOc1cccc(O)c1C(=O)O [Compound 1e] | 18.31 ± 0.17 µM
